Measured values published in patent publication US6228841A, “Peptide derivatives” (Daiichi Pharmaceutical Co., Ltd., priority 1995, dated 2001).
Read-outs that look alike come from different tables or passages of the source.

Tested on: mice
Assay: analgesic activity by pressure stimulation method (base of tail)
Type: in vivo
Conditions: Mus musculus, read-out: ED50 (dose providing 50% of % of MPE, analgesic activity)
Description: The analgesic activities of peptide derivatives of the present invention were evaluated by pressure stimulation method as follows. Mice were subjected to pressure stimulation at the bases of their tails at a rate of 10 mmHg/second. […] For the experiments, mice that were preliminary determined to respond to a pressure of 40-50 mmHg were used. The maximum stimulating pressure was 100 mmHg. Analgesic activity was calculated as percent of maximum possible effect (% of MPE) according to the following equation: [formula]
wherein Po is the pain reaction threshold before the administration of a drug; Pt is the pain reaction threshold "t" minutes after the administration of the drug; and Pc is the maximum stimulating pressure. According to a dose-response curve, ED50 value was determined as a dose of drug providing 50% of % of MEP and used for comparison of analgesic activity of drugs.

**Q.** For `CN1CC[C@]23c4c5ccc(O)c4O[C@H]2[C@@H](O)C=C[C@H]3[C@H]1C5` [morphine], which ED50 (oral administration) is on record?
**A.** 29.6 mg/kg

**Q.** And the ED50 (sc, subcutaneous administration (skin in the backs))?
**A.** 4.6 mg/kg
